Counter-ions that a name gives are not always drawn.
Legend:
[1] = system: tracheal smooth muscle (TSM) segments; assay: Relaxation dose-response to isoproterenol in TSM segments half-maximally contracted with ACh; format: cell-based, rabbit
Protocol: Rabbits were anesthetized with xylazine (10 mg/kg) and ketarnine (50 mg/kg) and were subsequently sacrificed using an overdose of pentobarbital (130 mg/kg). The tracheae of the rabbits were removed via open thoracotomy, the tracheae were cleared of loose connective tissue and were divided into eight ring segments of 6-8 mm length. Each segment referred to herein as a tracheal smooth muscle (TSM) segment was incubated for 24 hours at room temperature in either of the following: 1) human serum containing immunoglobulin (Ig) E at greater than 1000 IU/ml which was obtained from allergic patients having moderate to severe asthma and a 4-5/6+radioallergosorbent test (RAST) positive (having a specific IgE concentration of more than 17.5 Phadebas RAST units (PRU)/ml) to Dermatophagoides pteronyssimus, Dermatophagoides farinae and ragweed, and a positive skin test to these antigens; or 2) human serum obtained from non-atopic, non-asthmatic individuals having normal serum IgE levels (i.e., <70 IU/ml) and negative skin test reactivity to Dermatophagoides pteronyssimus, Dermatophagoides farinae and ragweed (Hakonarson et al. 1995, Am. J. Physiol. (Lung Cell Mol. Physiol.) 269:L645-L652).
In parallel experiments, TSM segments were incubated in either control serum or in atopic asthmatic serum that was: a) depleted of its immunoglobulin complexes by pretreatment with sepharose Staphylococcus protein A as described (Kessler, 1975, J. Immunol. 1 15:161.7-1624); b) co-incubated with an anti-CD23 (40 μg/ml) monoclonal blocking antibody; or c) with an anti-CD 16 (2 μg/ml) monoclonal blocking antibody. The TSM segments were treated with their respective anti-CD23 or anti-CD16 antibodies in Dulbecco's modified Eagle's medium for 1 hour prior to exposure to the atopic asthmatic serum.
In extended experiments, paired TSM segments were incubated for 24 hours in Dulbecco's modified Eagle's medium, as previously described (Hakonarson et al., 1996, J. Clin. Invest. 97:2593-2600), containing either: a) human IgE (final bath concentration (FBC): 15 μg/ml); or b) human IgE-goat-anti-human IgE immune complexes (FBC: 15:5 μg/ml of IgE/anti-IgE in the final organ bath mixture). Tissues incubated in medium alone served as controls. The concentrations of immune complexes used for the TSM incubations were based on the results obtained in pilot studies which were designed to determine the concentration and ratio of immune complexes that induced the greatest acute contractile effect in isolated sensitized TSM segments. The serum was aerated with a continuous supplemental O2 mixture (95% O2/5% CO2) during the incubation phase.
Following incubation of the tissue preparations obtained as described herein, each rabbit airway segment was suspended longitudinally between stainless steel triangular supports in siliconized Harvard 20 ml organ baths. […] Care was taken to place the membranous portion of the trachea between the supports in order to maximize the recorded tension generated by the contracting trachealis muscle. The tissues were bathed in modified Krebs-Ringer solution containing 125 mM NaCl, 14 mM NaHCO3, 4 mM KCl, 2.25 mM CaCl2.H2O, 1.46 MgSO4.H2O, 1.2 mM NaH2PO4.H2O and 11 mM glucose. The baths were aerated with 5% CO2 in oxygen, a pH of 7.35-7.40 was maintained, and the organ bath temperature was held at 37° C. Passive resting tension of each TSM segment was set at 2.0 g after each tissue had been passively stretched to a tension of 8 g in order to optimize the resting length of each segment as described (Tanaka et al., 1990, J. Clin. Invest. 85:345-350). The tissues were allowed to equilibrate in the organ baths for 45 minutes, at which time each tissue was primed with a 1 minute exposure to 10−4 M acetylcholine (ACh). […]

[2] = system: tracheal smooth muscle (TSM) segments; assay: Cholinergic contractility of isolated TSM segments to cumulative ACh (organ bath, isometric tension); format: cell-based, rabbit
Protocol: Rabbits were anesthetized with xylazine (10 mg/kg) and ketarnine (50 mg/kg) and were subsequently sacrificed using an overdose of pentobarbital (130 mg/kg). The tracheae of the rabbits were removed via open thoracotomy, the tracheae were cleared of loose connective tissue and were divided into eight ring segments of 6-8 mm length. […]
Following incubation of the tissue preparations obtained as described herein, each rabbit airway segment was suspended longitudinally between stainless steel triangular supports in siliconized Harvard 20 ml organ baths. […] Care was taken to place the membranous portion of the trachea between the supports in order to maximize the recorded tension generated by the contracting trachealis muscle. […]

[3] = TSM incubated with control serum

| Compound | Rmax (% maximal relaxation) for isoproterenol ([1]; IgE immune complex-treated TSM (15:5 μg/ml, 24 h)) [%] | Rmax (% maximal relaxation) for isoproterenol ([1]; atopic asthmatic serum-sensitized TSM) [%] | Rmax (% maximal relaxation) for isoproterenol ([1]; control TSM, vehicle alone 24 h) [%] | Rmax (% maximal relaxation) for isoproterenol ([1]; control serum-treated TSM) [%] | Effect on contractility of the tissue to ACh [2, 3] | Effect on the induced augmented constrictor responses to ACh ([2]; atopic asthmatic serum-sensitized TSM, tissue pretreated with antibody (anti-CD23 40 μg/ml, anti-CD16 2 μg/ml) or serum pre-treated with SpA) | Effect on relaxation responsiveness to isoproterenol [1, 3] | Effect on the attenuated isoproterenol-induced relaxation responses ([1]; atopic asthmatic serum-sensitized TSM, tissue pretreated with antibody (anti-CD23 40 μg/ml, anti-CD16 2 μg/ml) or serum depleted with SpA) |
| --- | --- | --- | --- | --- | --- | --- | --- | --- |
| CC(C)NCC(O)c1ccc(O)c(O)c1 (centres unmarked) [isoproterenol, isoproterenol hydrochloride] | 36.8±10.4 | 26.0±5.1 | 67.8±6.0 | 47.0±4.7 |  |  |  |  |
| SpA: Sepharose Staphylococcus protein A used to deplete the sensitizing serum of its immune complexes |  |  |  |  | neither anti-CD23 MAb nor pretreatment of the control serum with SpA affected | largely prevented | neither anti-CD23 MAb nor pretreatment of the control serum with SpA affected | ablated |

Source: patent publication US6630140B1, “Compositions and methods for treatment of asthma” (The Children's Hospital of Philadelphia, priority 1998, dated 2003)
